Measured values: patent US6642392B1 (priority 1997, dated 2003)
Read-outs that look alike come from different tables or passages of the source.

What was measured:
Type in all cases: in vivo
[1] = test system: Botrytis cinerea; experiment: Test E: gray mold, preventive spray on cucumber seedlings; conditions: for Test E disease control rating (100 = 100% disease control, 0 = no disease control): rating relative to controls; for Test E disease control rating: gray mold on cucumber
How it was run: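 Preventive spray on cucumber seedlings used a suspension (3% acetone, 250 ppm Trem 014), applied to run-off one day before inoculation with Botrytis cinerea spores. Plants were held 48 h at 20° C in saturated air, then 5 days at 20° C. Percent disease control was scored relative to untreated plants.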

[2] = test system: Phytophthora infestans; conditions: for Test D disease control rating (100 = 100% disease control, 0 = no disease control): rating relative to controls; for Test D disease control rating: tomato late blight
[3] = test system: Pyricularia oryzae; conditions: for Test C disease control rating (100 = 100% disease control, 0 = no disease control): rating relative to controls; for Test C disease control rating: rice blast
[4] = test system: Eiysiphe graminis f. sp. tritici; experiment: Test A: wheat powdery mildew, preventive spray on wheat seedlings; conditions: for Test A disease control rating (100 = 100% disease control, 0 = no disease control): rating relative to controls; for Test A disease control rating: wheat powdery mildew
How it was run: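 Preventive test: seedlings inoculated with powdery mildew spores one day after run-off spraying of a suspension. Ratings after 7 days in a 20° C growth chamber express percent disease control versus controls.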

[5] = test system: Puccinia recondita; experiment: Test B: wheat leaf rust, preventive spray on wheat seedlings; conditions: for Test B disease control rating (100 = 100% disease control, 0 = no disease control): rating relative to controls; for Test B disease control rating: wheat leaf rust
How it was run: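 Preventive test: P. recondita spores were applied one day after a run-off spray of compound suspension on wheat seedlings. Plants had 24 h at 20 °C in saturated air plus 6 days in a 20 °C growth chamber. Scoring is % disease control (100 = full) relative to controls.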

[6] = cucumber seedlings sprayed to run-off, inoculated the following day, unmarked compounds (standard test rate)
[7] = tomato seedlings sprayed to run-off, inoculated the following day, unmarked compounds (standard test rate)
[8] = rice seedlings sprayed to run-off, inoculated the following day, unmarked compounds (standard test rate)
[9] = wheat seedlings sprayed to run-off, inoculated the following day, unmarked compounds (standard test rate)
[10] = 100 = 100% disease control, 0 = no control, unmarked entries (standard test concentration)
[11] = 100 = 100% disease control, 0 = no control relative to controls, unmarked entries (standard test concentration)
[12] = tested at 40 ppm, wheat seedlings

| SMILES | Test E disease control rating (100 = 100% disease control, 0 = no disease control) [1, 6] | Test D disease control rating (100 = 100% disease control, 0 = no disease control) [2, 7] | Test C disease control rating (100 = 100% disease control, 0 = no disease control) [3, 8] | Test A disease control rating (100 = 100% disease control, 0 = no disease control) [4, 9] | Test B disease control rating (100 = 100% disease control, 0 = no disease control) [5, 9] | Test E disease control rating [1, 10] | Test D disease control rating [2, 10] | Test C disease control rating [3, 10] | Test A disease control rating [4, 11] | Test B disease control rating [5, 10] | further results |
| --- | --- | --- | --- | --- | --- | --- | --- | --- | --- | --- | --- |
| CCC1(C(=O)NC(C)COc2cc(OC(F)F)ccc2C#N)C(C)C1(Cl)Cl (mixture of isomers) [compound 256] | 0% | 0% | 0% | 56% | 0% | – | – | – | – | – | – |
| CC(C)(C)C(C#N)C(=O)NC/C=C/c1cccc(Br)c1 (racemic) [compound 272] | 0% | 63% | 53% | 76% | 0% | – | – | – | – | – | – |
| C[C@H](COc1cc(F)ccc1F)NC(=O)C(C#N)C(C)(C)C (single isomer, unassigned) [28b] | – | – | – | – | – | 0% | 96% | 100% | 86% | 28% | – |
| C[C@H](COc1ccccc1F)NC(=O)C(C#N)C(C)(C)C (single isomer, unassigned) [2b] | – | – | – | – | – | 0% | 0% | 100% | 0% | 0% | – |
| CCC1(C(=O)NCCCn2c(C)cc(C)c2C#N)C(C)C1(Cl)Cl (centres unmarked) [compound 150] | – | – | – | – | – | 87% | 0% | 60% | 0% | 0% | – |
| CCC1(C(=O)NC(C)COc2cccc(CF)c2)C(C)C1(Cl)Cl (mixture of isomers) [compound 317] | – | – | – | – | – | – | – | – | – | – | Test E disease control rating (100 = 100% disease control, 0 = no disease control) ([1]; tested at 40 ppm, cucumber seedlings): 0%; Test D disease control rating (100 = 100% disease control, 0 = no disease control) ([2]; tested at 40 ppm, tomato seedlings): 19%; Test C disease control rating (100 = 100% disease control, 0 = no disease control) ([3]; tested at 40 ppm, rice seedlings): 85%; Test A disease control rating (100 = 100% disease control, 0 = no disease control) [4, 12]: 57%; Test B disease control rating (100 = 100% disease control, 0 = no disease control) [5, 12]: 0% |
| CC(COc1c(Cl)cccc1Cl)NC(=O)C(C#N)C(C)(C)C (mixture of isomers) [compound 34] | – | – | – | – | – | 0% | 0% | 91% | 62% | 85% | – |
| CC(C(C#N)C(=O)NCC=Cc1ccccc1F)C(C)(C)C (mixture of isomers) [compound 75] | – | – | – | – | – | – | – | – | – | – | Test E disease control rating ([1]; tested at 40 ppm): 0%; Test D disease control rating ([2]; tested at 40 ppm): 19%; Test C disease control rating ([3]; tested at 40 ppm): 52%; Test A disease control rating ([4]; tested at 40 ppm): 0%; Test B disease control rating ([5]; tested at 40 ppm): 0% |
| C[C@H](COc1cccc(F)c1F)NC(=O)C(C#N)C(C)(C)C (single isomer, unassigned) [26a] | – | – | – | – | – | 0% | 51% | 97% | 38% | 28% | – |
| C[C@H](COc1cc(F)ccc1Cl)NC(=O)C(C#N)C(C)(C)C (single isomer, unassigned) [191a] | – | – | – | – | – | 85% | 25% | 100% | 0% | 0% | – |
| CCC1(C(=O)NCC=C(C)c2cc(Cl)ccc2Cl)C(C)C1(Cl)Cl (centres unmarked) [compound 271] | 0% | 96% | 94% | 77% | 0% | – | – | – | – | – | – |
| CCC1(C(=O)NC(C)COc2cc(F)ccc2F)C(C)C1(Cl)Cl (centres unmarked) [compound 107] | – | – | – | – | – | – | – | – | – | – | Test E disease control rating ([1]; tested at 40 ppm): 0%; Test D disease control rating ([2]; tested at 40 ppm): 0%; Test C disease control rating ([3]; tested at 40 ppm): 100%; Test A disease control rating ([4]; tested at 40 ppm): 71%; Test B disease control rating ([5]; tested at 40 ppm): 0% |
| C[C@H](COc1cc(F)ccc1F)NC(=O)C(C#N)C(C)(C)C (single isomer, unassigned) [28a] | – | – | – | – | – | 0% | 68% | 100% | 38% | 28% | – |
| C[C@H](COc1ccc(Cl)cc1Cl)NC(=O)C(C#N)C(C)(C)C (single isomer, unassigned) [32b] | – | – | – | – | – | 0% | 23% | 94% | 0% | 27% | – |
| CC(COc1c(C#N)cccc1C(F)(F)F)NC(=O)C(C#N)C(C)C(C)(C)C (mixture of isomers) [compound 68] | – | – | – | – | – | 0% | 82% | 86% | 62% | 27% | – |
| CC(C=Cc1ccccc1C#N)NC(=O)C(C#N)C(C)(C)C (mixture of isomers) [compound 307] | 0% | 0% | 94% | 36% | 0% | – | – | – | – | – | – |
| C=CC(C)(C)C(C#N)C(=O)N[C@H](C)COc1cc(F)ccc1Cl (single isomer, unassigned) [192a] | – | – | – | – | – | 85% | 0% | 100% | 0% | 0% | – |
| C=C(F)C(C)(C)C(C#N)C(=O)NC(C)COc1cc(F)ccc1F (mixture of isomers) [compound 217] | 0% | 0% | 99% | 0% | 0% | – | – | – | – | – | – |
| C[C@H](COc1cc(F)ccc1Cl)NC(=O)C(C#N)C(C)(C)C (single isomer, unassigned) [191b] | – | – | – | – | – | 55% | 47% | 100% | 0% | 0% | – |
| CC(COc1ccc(Br)cc1)NC(=O)C(C#N)C(C)(C)C (single isomer, unassigned) [10a] | – | – | – | – | – | 0% | 23% | 86% | 0% | 27% | – |
| C[C@H](COc1cc(F)ccc1F)NC(=O)C(C#N)C(C)(C)C=CF (single isomer, unassigned) [221b] | 0% | 41% | 100% | 62% | 68% | – | – | – | – | – | – |
| CCC(=CCNC(=O)C1(CC)C(C)C1(Cl)Cl)c1ccccc1 (centres unmarked) [compound 269] | 0% | 74% | 94% | 98% | 0% | – | – | – | – | – | – |
